Test results reported in BindingDB's records for doi:10.1021/jm030472z (Neurocrine Biosciences, 2004).

Legend:
[1] = target: Gonadotropin-releasing hormone receptor (Macaca mulatta); assay: […] inhibition of monkey Gonadotropin releasing hormone receptor
[2] = target: Gonadotropin-releasing hormone receptor (Macaca mulatta); assay: […] inhibition of monkey Gonadotropin-releasing hormone receptor

Compound	Ki [1] [nM]	Ki [2] [nM]
COc1cccc(-c2c(C)n(Cc3c(F)cccc3F)c(=O)n(C[C@@H](C)NCc3nccs3)c2=O)c1F [1-(2,6-Difluoro-benzyl)-5-(2-fluoro-3-methoxy-phenyl)-6-methyl-3-{(R)-2-[(thiazol-2-ylmethyl)-amino]-propyl}-1H-pyrimidine-2,4-dione]	820	
COc1cccc(-c2c(C)n(Cc3c(F)cccc3F)c(=O)n(C[C@H](C)NCc3sccc3C)c2=O)c1F [1-(2,6-Difluoro-benzyl)-5-(2-fluoro-3-methoxy-phenyl)-6-methyl-3-{(S)-2-[(3-methyl-thiophen-2-ylmethyl)-amino]-propyl}-1H-pyrimidine-2,4-dione]		87
COc1cccc(-c2c(C)n(Cc3c(F)cccc3F)c(=O)n(C[C@H](C)NCc3ccccc3)c2=O)c1F [3-((S)-2-Benzylamino-propyl)-1-(2,6-difluoro-benzyl)-5-(2-fluoro-3-methoxy-phenyl)-6-methyl-1H-pyrimidine-2,4-dione]		550
